Values of other authors as cited in patent publication US6765015B2, “Halogenated paclitaxel derivatives” (Xechem International, Inc., priority 1995, dated 2004).

Test system: leukemic tumors
Details: in vivo

SMILES: C/C=C(\C)C(=O)N[C@@H](c1ccccc1)[C@@H](O)C(=O)O[C@H]1C[C@@]2(O)[C@@H](OC(=O)c3ccccc3)[C@@H]3[C@]4(OC(C)=O)CO[C@@H]4C[C@H](O)[C@@]3(C)C(=O)[C@H](OC(C)=O)C(=C1C)C2(C)C [Cephalomannine, cephalomannine]
- remission of leukemic tumors: effective in causing remission of leukemic tumors
